Thermal stability and Kd data for one molecule are collected here from article PMC11992128, “Inhibition of Rho GEFs attenuates pulmonary fibrosis through suppressing myofibroblast activation and reprogramming profibrotic macrophages” (Cell Death & Disease, 2025).

Structures are written as SMILES.

For assay [1], the target named is T1, DH/PH domain of LARG (Leukemia-associated RhoGEF); ARHGEF12(765-1138aa) (Homo sapiens, UniProt Q9NZN5).
T1 construct: DH/PH domain; GST-ARHGEF12(765-1138aa) by lentivirus in NIH/3T3 for the cell tests
T1 sequence (Q9NZN5 765-1138): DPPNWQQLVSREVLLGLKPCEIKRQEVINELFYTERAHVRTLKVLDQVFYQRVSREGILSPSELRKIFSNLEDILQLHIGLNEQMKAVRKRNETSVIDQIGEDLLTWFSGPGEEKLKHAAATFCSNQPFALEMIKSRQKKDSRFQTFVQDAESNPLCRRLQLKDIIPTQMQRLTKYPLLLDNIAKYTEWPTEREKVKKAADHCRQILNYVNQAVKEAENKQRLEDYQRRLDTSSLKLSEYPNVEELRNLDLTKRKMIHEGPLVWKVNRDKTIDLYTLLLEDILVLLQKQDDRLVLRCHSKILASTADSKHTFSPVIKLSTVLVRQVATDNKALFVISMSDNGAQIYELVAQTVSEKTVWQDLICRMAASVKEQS
As to the kind of experiment: CETSA, NIH/3T3 expressing the GST-tagged domain, Western blot. In kind it is cell-based. The following applies: 75 μM GL-V9, 3 h. In general terms: A western blot detects proteins with antibodies after separation by electrophoresis.

Assay [2] deals with T1, DH/PH domain of LARG (Leukemia-associated RhoGEF); ARHGEF12(765-1138aa). As to the kind of experiment: surface plasmon resonance (Biacore S200, CM5 chip, immobilised protein). In kind it is binding.

One may read the Kd as the concentration at which binding is half-saturated. As for `COc1c(OCCCCN2CCCC2)cc(O)c2c(=O)cc(-c3ccccc3)oc12` [GL-V9, 5-hydroxy-8-methoxy-2-phenyl-7-(4-(pyrrolidine-1-yl)butoxy) 4H-chromen-4-one], in assay [1], the thermal stability result was “GL-V9 significantly enhanced the thermal stability of the wild-type DH/PH domain”. The same molecule came in with a Kd in assay [2] of 11.8 µM.
